Each block holds one molecule with its values, some of them ahead of it.
Experiments:
[1] = target: T1, Cyclin-dependent kinase 4/cyclin D1 (Homo sapiens, UniProt P11802); assay: Inhibition of CDK4/cyclin D1 (unknown origin) assessed as substrate phosphorylation using ULight MBP peptide as substrate in presence of ATP incubated for 1 hr by FRET based LANCE Ultra KinaSelect screen assay; type: protein-complex assay
[2] = target: T2, Cyclin-dependent kinase 2/cyclin A (Homo sapiens, UniProt P24941); assay: Inhibition of CDK2/cyclin A (unknown origin) assessed as substrate phosphorylation using ULight MBP peptide as substrate in presence of ATP incubated for 1 hr by FRET based LANCE Ultra KinaSelect screen assay; type: protein-complex assay
[3] = target: T3, Cyclin-dependent kinase 6 (Homo sapiens, UniProt Q00534); assay: Inhibition of CDK6 (unknown origin) assessed as substrate phosphorylation using ULight MBP peptide as substrate in presence of ATP incubated for 1 hr by FRET based LANCE Ultra KinaSelect screen assay
T3 sequence (Q00534 whole entry): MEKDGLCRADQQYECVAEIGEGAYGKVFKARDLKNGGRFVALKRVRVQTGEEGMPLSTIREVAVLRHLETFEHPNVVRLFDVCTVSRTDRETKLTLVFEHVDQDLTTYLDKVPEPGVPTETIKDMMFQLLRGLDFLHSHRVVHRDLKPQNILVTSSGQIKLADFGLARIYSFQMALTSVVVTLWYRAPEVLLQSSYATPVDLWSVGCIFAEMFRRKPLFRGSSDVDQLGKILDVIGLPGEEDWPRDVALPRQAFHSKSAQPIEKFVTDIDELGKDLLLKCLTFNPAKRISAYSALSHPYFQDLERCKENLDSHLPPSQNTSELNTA

[4] = target: Cyclin-dependent kinase 1/cyclin B1 (Homo sapiens, UniProt P06493); assay: Inhibition of CDK1/cyclin B1 (unknown origin) assessed as substrate phosphorylation using ULight MBP peptide as substrate in presence of ATP incubated for 1 hr by FRET based LANCE Ultra KinaSelect screen assay; type: protein-complex assay
[5] = target: T4, Cyclin-dependent kinase 7 (Homo sapiens, UniProt P50613); assay: Inhibition of CDK7 (unknown origin) assessed as substrate phosphorylation using ULight MBP peptide as substrate in presence of ATP incubated for 1 hr by FRET based LANCE Ultra KinaSelect screen assay
T4 sequence (P50613 whole entry): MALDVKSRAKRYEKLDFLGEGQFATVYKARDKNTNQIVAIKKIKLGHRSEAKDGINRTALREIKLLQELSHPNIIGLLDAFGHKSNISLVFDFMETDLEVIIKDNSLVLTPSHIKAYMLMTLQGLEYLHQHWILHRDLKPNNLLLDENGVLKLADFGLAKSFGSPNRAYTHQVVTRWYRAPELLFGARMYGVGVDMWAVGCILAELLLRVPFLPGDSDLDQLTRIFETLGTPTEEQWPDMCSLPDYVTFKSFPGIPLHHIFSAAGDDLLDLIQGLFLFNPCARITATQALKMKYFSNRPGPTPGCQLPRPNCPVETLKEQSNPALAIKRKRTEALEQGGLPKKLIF

[6] = Inhibition of CDK7/Cyclin H/MAT1 (unknown origin); parameters: species or system Homo sapiens
[7] = target: T5, Cyclin-dependent kinase 1/cyclin B (Homo sapiens, UniProt P06493); assay: Inhibition of CDK1/Cyclin B (unknown origin); type: protein-complex assay
[8] = Inhibition of CDK3/Cyclin E (unknown origin); parameters: species or system Homo sapiens
[9] = Inhibition of CDK4/Cyclin D (unknown origin); parameters: species or system Homo sapiens
[10] = Inhibition of CDK6/Cyclin D3 (unknown origin); parameters: species or system Homo sapiens
[11] = target: Cyclin-dependent kinase 5/CDK5 activator 1 (Homo sapiens, UniProt Q00535); assay: Inhibition of CDK5/p35 (unknown origin); type: protein-complex assay
[12] = target: T6, Protein cereblon/Cyclin-dependent kinase 9 (Homo sapiens, UniProt P50750+Q96SW2); assay: Protac activity at CRBN/CDK9 in human MOLT-4 cells assessed as degradation of CDK9 measured after 6 hrs by western blot analysis; type: cell-based
T6 sequence (P50750 whole entry): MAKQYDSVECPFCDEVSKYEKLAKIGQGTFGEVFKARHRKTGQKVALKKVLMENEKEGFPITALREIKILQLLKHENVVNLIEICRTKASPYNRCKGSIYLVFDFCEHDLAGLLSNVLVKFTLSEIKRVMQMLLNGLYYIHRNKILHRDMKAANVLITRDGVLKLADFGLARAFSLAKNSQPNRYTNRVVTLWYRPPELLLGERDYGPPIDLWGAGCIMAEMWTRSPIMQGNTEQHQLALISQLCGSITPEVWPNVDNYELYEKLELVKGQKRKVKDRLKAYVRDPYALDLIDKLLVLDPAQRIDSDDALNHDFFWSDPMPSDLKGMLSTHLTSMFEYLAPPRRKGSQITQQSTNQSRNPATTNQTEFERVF
T6 sequence (Q96SW2 whole entry): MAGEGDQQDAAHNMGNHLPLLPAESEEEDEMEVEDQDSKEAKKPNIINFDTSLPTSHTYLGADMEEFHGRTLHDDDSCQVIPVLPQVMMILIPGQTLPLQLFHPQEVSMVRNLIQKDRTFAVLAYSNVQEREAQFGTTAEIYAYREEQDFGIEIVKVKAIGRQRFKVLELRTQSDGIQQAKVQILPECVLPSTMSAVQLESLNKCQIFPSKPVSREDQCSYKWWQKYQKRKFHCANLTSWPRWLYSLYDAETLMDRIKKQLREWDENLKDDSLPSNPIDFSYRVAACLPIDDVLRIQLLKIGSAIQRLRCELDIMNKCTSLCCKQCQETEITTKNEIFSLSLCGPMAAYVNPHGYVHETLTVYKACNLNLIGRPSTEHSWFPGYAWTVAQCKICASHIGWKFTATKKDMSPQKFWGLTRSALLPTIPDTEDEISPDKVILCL

[13] = target: CDK4/Cyclin D3 (Homo sapiens, UniProt P11802); assay: Inhibition of human CDK4/Cyclin D3 in presence of ATP; type: protein-complex assay
[14] = target: CDK9/cyclin T1 (Homo sapiens, UniProt P50750); assay: Inhibition of human CDK9/cyclin T1 in presence of ATP; type: protein-complex assay
[15] = target: T7, Cyclin-dependent kinase 2 (Homo sapiens, UniProt P24941); assay: Inhibition of CDK2 (unknown origin) by Kinomescan method
[16] = target: T8, Cyclin-dependent kinase 9 (Homo sapiens, UniProt P50750); assay: Inhibition of CDK9 (unknown origin) by Kinomescan method
T8 sequence (P50750 whole entry): as the sequence (P50750 whole entry) above

[17] = target: T9, Cyclin-dependent kinase 5 (Homo sapiens, UniProt Q00535); assay: Inhibition of CDK5 (unknown origin) by Kinomescan method
T9 sequence (Q00535 whole entry): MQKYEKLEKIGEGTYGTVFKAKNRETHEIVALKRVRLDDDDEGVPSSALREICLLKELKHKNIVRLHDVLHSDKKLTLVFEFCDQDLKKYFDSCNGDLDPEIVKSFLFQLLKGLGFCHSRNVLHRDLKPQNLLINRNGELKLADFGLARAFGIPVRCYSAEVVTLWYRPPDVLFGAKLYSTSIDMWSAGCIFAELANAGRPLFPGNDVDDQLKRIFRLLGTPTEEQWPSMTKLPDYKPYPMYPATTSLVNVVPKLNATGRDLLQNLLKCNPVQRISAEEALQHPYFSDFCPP

[18] = target: T10, Cyclin-dependent kinase 1 (Homo sapiens, UniProt P06493); assay: Inhibition of CDK1 (unknown origin) by Kinomescan method
T10 sequence (P06493 whole entry): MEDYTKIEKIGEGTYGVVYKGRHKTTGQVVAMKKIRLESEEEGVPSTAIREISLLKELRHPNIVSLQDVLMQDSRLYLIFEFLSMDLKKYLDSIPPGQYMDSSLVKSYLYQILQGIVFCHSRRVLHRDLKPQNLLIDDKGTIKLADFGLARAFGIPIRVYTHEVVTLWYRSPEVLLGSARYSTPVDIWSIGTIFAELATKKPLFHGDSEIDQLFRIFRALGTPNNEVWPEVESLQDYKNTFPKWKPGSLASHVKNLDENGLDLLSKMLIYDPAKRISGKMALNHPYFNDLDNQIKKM

[19] = target: T11, Cyclin-dependent kinase 8 (Homo sapiens, UniProt P49336); assay: Inhibition of CDK8 (unknown origin) by Kinomescan method
T11 sequence (P49336 whole entry): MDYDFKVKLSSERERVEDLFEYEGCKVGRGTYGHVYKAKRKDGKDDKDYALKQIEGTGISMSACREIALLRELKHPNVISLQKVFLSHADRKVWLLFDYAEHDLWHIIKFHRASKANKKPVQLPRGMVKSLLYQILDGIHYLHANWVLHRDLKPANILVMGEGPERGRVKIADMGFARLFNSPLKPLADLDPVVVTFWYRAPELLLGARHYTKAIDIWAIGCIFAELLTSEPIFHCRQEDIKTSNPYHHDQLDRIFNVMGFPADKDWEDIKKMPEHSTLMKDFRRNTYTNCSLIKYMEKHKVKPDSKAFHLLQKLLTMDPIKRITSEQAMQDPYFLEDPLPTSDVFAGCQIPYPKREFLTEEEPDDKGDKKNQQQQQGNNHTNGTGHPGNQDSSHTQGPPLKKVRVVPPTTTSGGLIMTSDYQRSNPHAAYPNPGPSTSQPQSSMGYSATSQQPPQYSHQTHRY

[20] = target: Dual specificity tyrosine-phosphorylation-regulated kinase 1B (Homo sapiens, UniProt Q9Y463); assay: Inhibition of DYRK1B (unknown origin) by Kinomescan method
[21] = target: T12, Cyclin-dependent kinase 14 (Homo sapiens, UniProt O94921); assay: Inhibition of CDK14 (unknown origin) by Kinomescan method
T12 sequence (O94921 whole entry): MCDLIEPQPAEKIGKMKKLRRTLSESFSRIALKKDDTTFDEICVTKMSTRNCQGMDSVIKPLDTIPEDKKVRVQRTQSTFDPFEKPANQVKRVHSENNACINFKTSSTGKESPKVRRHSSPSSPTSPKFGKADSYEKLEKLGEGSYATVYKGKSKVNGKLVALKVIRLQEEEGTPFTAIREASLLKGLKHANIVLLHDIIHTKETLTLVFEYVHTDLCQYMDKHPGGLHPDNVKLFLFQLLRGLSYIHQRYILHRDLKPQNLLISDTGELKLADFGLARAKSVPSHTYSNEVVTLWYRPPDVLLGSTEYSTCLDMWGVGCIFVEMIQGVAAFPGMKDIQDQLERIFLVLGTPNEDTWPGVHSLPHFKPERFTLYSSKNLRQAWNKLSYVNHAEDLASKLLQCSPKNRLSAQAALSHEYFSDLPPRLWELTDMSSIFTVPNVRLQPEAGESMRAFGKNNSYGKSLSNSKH

[22] = target: T4, Cyclin-dependent kinase 7
[23] = target: T13, Cyclin-dependent kinase 18 (Homo sapiens, UniProt Q07002); assay: Inhibition of CDK18 (unknown origin) by Kinomescan method
T13 sequence (Q07002 whole entry): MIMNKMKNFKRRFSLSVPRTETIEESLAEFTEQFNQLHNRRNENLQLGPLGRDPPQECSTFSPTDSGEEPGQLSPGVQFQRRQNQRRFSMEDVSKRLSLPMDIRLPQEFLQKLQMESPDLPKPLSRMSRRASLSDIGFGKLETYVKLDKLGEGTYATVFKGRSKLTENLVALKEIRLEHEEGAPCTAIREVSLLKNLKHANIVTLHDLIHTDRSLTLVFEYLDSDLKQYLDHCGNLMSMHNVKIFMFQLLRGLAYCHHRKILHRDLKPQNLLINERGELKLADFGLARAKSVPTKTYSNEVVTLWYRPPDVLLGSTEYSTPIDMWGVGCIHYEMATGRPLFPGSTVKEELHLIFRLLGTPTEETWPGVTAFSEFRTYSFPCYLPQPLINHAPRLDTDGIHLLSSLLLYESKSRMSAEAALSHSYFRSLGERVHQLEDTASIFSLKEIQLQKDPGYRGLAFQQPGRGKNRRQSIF

[24] = target: T14, Cyclin-dependent kinase 16 (Homo sapiens, UniProt Q00536); assay: Inhibition of CDK16 (unknown origin) by Kinomescan method
T14 sequence (Q00536 whole entry): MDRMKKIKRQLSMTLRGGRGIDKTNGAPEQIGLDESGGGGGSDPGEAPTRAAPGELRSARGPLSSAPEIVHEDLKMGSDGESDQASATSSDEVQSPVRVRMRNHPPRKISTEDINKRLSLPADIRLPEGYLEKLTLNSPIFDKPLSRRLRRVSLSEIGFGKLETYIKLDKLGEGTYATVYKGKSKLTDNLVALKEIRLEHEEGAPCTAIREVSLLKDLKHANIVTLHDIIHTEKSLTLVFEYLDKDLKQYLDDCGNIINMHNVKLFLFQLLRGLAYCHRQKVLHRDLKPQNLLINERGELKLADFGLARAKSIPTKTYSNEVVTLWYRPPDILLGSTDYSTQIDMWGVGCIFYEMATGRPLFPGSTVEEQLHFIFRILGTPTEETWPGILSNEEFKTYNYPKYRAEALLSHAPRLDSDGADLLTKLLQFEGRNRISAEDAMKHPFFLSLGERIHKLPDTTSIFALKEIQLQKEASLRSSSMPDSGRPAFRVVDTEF

[25] = target: T15, Cyclin-dependent kinase 17 (Homo sapiens, UniProt Q00537); assay: Inhibition of CDK17 (unknown origin) by Kinomescan method
[26] = target: T8, Cyclin-dependent kinase 9; assay: Inhibition of CDK9 (unknown origin) at 1 uM by Kinomescan method
[27] = target: T7, Cyclin-dependent kinase 2; assay: Inhibition of CDK2 (unknown origin) by LANCE ULight TR-FRET assay
[28] = target: T10, Cyclin-dependent kinase 1; assay: Inhibition of CDK1 (unknown origin) by LANCE ULight TR-FRET assay
[29] = target: T4, Cyclin-dependent kinase 7; assay: Inhibition of CDK7 (unknown origin) by LANCE ULight TR-FRET assay
[30] = target: T16, Cyclin-dependent kinase 4 (Homo sapiens, UniProt P11802); assay: Inhibition of CDK4 (unknown origin) by LANCE ULight TR-FRET assay
T16 sequence (P11802 whole entry): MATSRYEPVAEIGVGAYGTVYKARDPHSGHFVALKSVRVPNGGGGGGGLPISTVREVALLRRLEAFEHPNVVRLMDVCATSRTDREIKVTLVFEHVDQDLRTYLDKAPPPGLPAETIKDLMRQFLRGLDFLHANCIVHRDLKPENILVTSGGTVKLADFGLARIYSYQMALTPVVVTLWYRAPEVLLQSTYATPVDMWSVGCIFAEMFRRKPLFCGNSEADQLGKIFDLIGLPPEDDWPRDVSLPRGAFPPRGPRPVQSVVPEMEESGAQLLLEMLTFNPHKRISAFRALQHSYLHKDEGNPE

[31] = target: T11, Cyclin-dependent kinase 8; assay: Inhibition of CDK8 (unknown origin) by LANCE ULight TR-FRET assay
[32] = target: T2, Cyclin-dependent kinase 2/cyclin A; assay: Inhibition of CDK2/cyclin A (unknown origin) using GST-CTD and gamma-32P-ATP as substrate incubated for 5 min by […]; type: protein-complex assay
[33] = target: T16, Cyclin-dependent kinase 4; assay: Inhibition of CDK4 (unknown origin)
[34] = target: T1, Cyclin-dependent kinase 4/cyclin D1; assay: Inhibition of human CDK4/Cyclin D1 assessed as substrate phosphorylation at ser780 using GST tagged retinoblastoma as substrate in presence of gamma32P-ATP by scintillation counter analysis; type: protein-complex assay
[35] = target: CDK6/cyclin D3 (Homo sapiens, UniProt Q00534); assay: Inhibition of human CDK6/Cyclin D3 in presence of gamma32P-ATP by scintillation counter analysis; type: protein-complex assay
[36] = target: T2, Cyclin-dependent kinase 2/cyclin A; assay: Inhibition of human CDK2/Cyclin A in presence of gamma32P-ATP by scintillation counter analysis; type: protein-complex assay
[37] = target: T5, Cyclin-dependent kinase 1/cyclin B; assay: Inhibition of human CDK1/Cyclin B in presence of gamma32P-ATP by scintillation counter analysis; type: protein-complex assay
[38] = target: T7, Cyclin-dependent kinase 2
[39] = target: T9, Cyclin-dependent kinase 5; assay: Inhibition of CDK5 (unknown origin)
[40] = target: T11, Cyclin-dependent kinase 8; assay: Inhibition of CDK8 (unknown origin)
[41] = target: T3, Cyclin-dependent kinase 6; assay: Inhibition of CDK6 (unknown origin)
[42] = target: T7, Cyclin-dependent kinase 2; assay: Inhibition of CDK2 (unknown origin) incubated for 120 mins in presence of ATP by HotSpot kinase assay
[43] = target: T16, Cyclin-dependent kinase 4; assay: Inhibition of CDK4 (unknown origin) incubated for 120 mins in presence of ATP by HotSpot kinase assay
[44] = target: T3, Cyclin-dependent kinase 6; assay: Inhibition of CDK6 (unknown origin) incubated for 120 mins in presence of ATP by HotSpot kinase assay
[45] = target: Cyclin-dependent kinase 13 (Homo sapiens, UniProt Q14004)
[46] = target: Cyclin-dependent kinase 3 (Homo sapiens, UniProt Q00526); assay: Inhibition of CDK3 (unknown origin) incubated for 120 mins in presence of ATP by HotSpot kinase assay
[47] = target: T12, Cyclin-dependent kinase 14; assay: Inhibition of CDK14 (unknown origin) incubated for 120 mins in presence of ATP by HotSpot kinase assay
[48] = target: Cyclin-dependent kinase 19 (Homo sapiens, UniProt Q9BWU1); assay: Inhibition of CDK19 (unknown origin) incubated for 120 mins in presence of ATP by HotSpot kinase assay
[49] = target: Cyclin-dependent kinase 12 (Homo sapiens, UniProt Q9NYV4)
[50] = target: T14, Cyclin-dependent kinase 16; assay: Inhibition of CDK16 (unknown origin) incubated for 120 mins in presence of ATP by HotSpot kinase assay
[51] = target: T15, Cyclin-dependent kinase 17; assay: Inhibition of CDK17 (unknown origin) incubated for 120 mins in presence of ATP by HotSpot kinase assay
[52] = target: T13, Cyclin-dependent kinase 18
[53] = target: T9, Cyclin-dependent kinase 5; assay: Inhibition of CDK5 (unknown origin) incubated for 120 mins in presence of ATP by HotSpot kinase assay
[54] = target: T11, Cyclin-dependent kinase 8; assay: Inhibition of CDK8 (unknown origin) incubated for 120 mins in presence of ATP by HotSpot kinase assay
[55] = target: T6, Protein cereblon/Cyclin-dependent kinase 9; assay: Protac activity at CRBN/CDK9 in human MCF7 cells assessed as degradation of CDK9 measured after 24 hrs by western blot analysis; type: cell-based
[56] = target: T8, Cyclin-dependent kinase 9; assay: Inhibition of CDK9 (unknown origin) using TMB as substrate by ELISA
[57] = target: T8, Cyclin-dependent kinase 9
[58] = target: CDK9/Cyclin K (Homo sapiens, UniProt P50750); assay: Inhibition of CDK9/Cyclin K (unknown origin) by LanthaScreen binding assay; type: protein-complex assay
[59] = target: CDK8/Cyclin C (Homo sapiens, UniProt P49336); assay: Inhibition of CDK8/Cyclin C (unknown origin) by LanthaScreen binding assay; type: protein-complex assay
[60] = target: Cyclin-C/Cyclin-dependent kinase 19 (Homo sapiens, UniProt Q9BWU1); assay: Inhibition of CDK19/Cyclin C (unknown origin) by LanthaScreen binding assay; type: protein-complex assay

T1 sequence (P11802 whole entry): as above
T1 sequence (P24385 whole entry, further chain): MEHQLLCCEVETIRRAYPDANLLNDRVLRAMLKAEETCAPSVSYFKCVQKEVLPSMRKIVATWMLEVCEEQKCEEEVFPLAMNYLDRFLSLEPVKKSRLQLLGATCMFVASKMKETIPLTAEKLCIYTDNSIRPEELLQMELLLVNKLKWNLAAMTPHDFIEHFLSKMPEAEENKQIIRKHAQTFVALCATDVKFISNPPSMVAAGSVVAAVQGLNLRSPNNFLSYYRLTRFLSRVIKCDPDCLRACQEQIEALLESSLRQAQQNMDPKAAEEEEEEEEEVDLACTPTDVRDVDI

SMILES: Nc1nc(N[C@H]2CC3CCC2C3)sc1C(=O)c1ccccc1[N+](=O)[O-] (some centres not stated)
- IC50 [6]: 555 nM
- IC50 [7]: 138 nM
- IC50 [8]: 399 nM
- IC50 [9]: 112 nM
- IC50 [10]: 712 nM
- IC50 [11]: 159 nM

SMILES: CC(C)(C)c1cnc(CSc2cnc(NC(=O)C3CCN(CC(=O)NCCOCCOCCOCCNc4cccc5c4C(=O)N(C4CCC(=O)NC4=O)C5=O)CC3)s2)o1 (configuration not stated)
- DC50 [12]: < 250 nM

SMILES: COc1ccc(F)cc1-c1c(F)cnc2[nH]c(C3=CCN([C@H]4CC[C@H](C(=O)O)CC4)CC3)cc12
- IC50 [27]: 328 nM
- IC50 [28]: 348 nM
- IC50 [29]: 14400 nM
- IC50 [30]: 16.2 nM
- IC50 [31]: 1610 nM

SMILES: CN1CCC(c2c(O)cc(O)c3c(=O)cc(-c4ccccc4Cl)oc23)C1CO (configuration not stated) [RIVICICLIB]
- IC50 [34]: 63 nM
- IC50 [35]: 396 nM
- IC50 [36]: 224 nM
- IC50 [37]: 79 nM

SMILES: CN1CC[C@@H](c2c(O)cc(O)c3c(=O)cc(-c4ccc(C(F)(F)F)cc4Cl)oc23)[C@@H]1CO [VORUCICLIB]
- IC50 [38]: 180 nM
- IC50 [39]: 210 nM
- IC50 [40]: 12 nM
- IC50 [41]: 210 nM

SMILES: O=C1CCC(N2C(=O)c3cccc(NC(=O)CCCCCn4cc(Oc5c(O)cc(O)c6c(=O)cc(-c7ccccc7)oc56)nn4)c3C2=O)C(=O)N1 (configuration not stated)
- DC50 [55]: 10000 nM

SMILES: COc1cc(O)c2c(=O)cc(-c3ccc(N4CCN(C)CC4)cc3)oc2c1N1CCNCC1
- IC50 [38]: 1180 nM
- IC50 [57]: 30 nM

The next lines start with the values.

- IC50 [1]: 9240 nM
- IC50 [2]: 2440 nM
- IC50 [3]: > 10000 nM
- IC50 [4]: 5510 nM
- IC50 [5]: > 10000 nM
SMILES: COc1ccccc1-c1cc(Nc2cccc(CS(N)(=O)=O)c2)ncn1

- IC50 [13]: 2.5 nM
- IC50 [14]: 7 nM
SMILES: CN(C)CCNC(=O)c1ccc(Nc2ncc3cc(C(=O)N(C)C)n(C4CCCC4)c3n2)c(F)c1

- IC50 [15]: 706 nM
- IC50 [16]: < 0.514 nM
- IC50 [17]: 1050 nM
- IC50 [18]: 584 nM
- IC50 [19]: > 10000 nM
- IC50 [20]: 350 nM
- IC50 [21]: 3450 nM
- IC50 [22]: > 10000 nM
- IC50 [23]: 4900 nM
- IC50 [24]: 605 nM
- IC50 [25]: 1500 nM
- inhibition [26]: 99%
SMILES: COC[C@@H](C)N[C@H]1CC[C@H](Nc2cc(-c3cccc(NCC4(C#N)CCOCC4)n3)c(Cl)cn2)CC1

- IC50 [32]: 3500 nM
SMILES: Nc1n[nH]c(N)c1/N=N/c1ccc(O)cc1

- IC50 [33]: 30000 nM
SMILES: Fc1ccc(N2CCCCC2)c(NC(=S)c2ccncc2)c1

- IC50 [11]: 5 nM
SMILES: COCCN1CCN(Cc2ccc(-c3n[nH]c4c3C(=O)c3c(NC(=O)NN5CCOCC5)cccc3-4)cc2)CC1 [RGB-286638]

- IC50 [42]: 18200 nM
- IC50 [43]: > 1200 nM
- IC50 [44]: > 1200 nM
- IC50 [45]: 4550 nM
- IC50 [46]: > 1200 nM
- IC50 [47]: > 1200 nM
- IC50 [48]: > 1200 nM
- IC50 [49]: 6200 nM
- IC50 [50]: > 1200 nM
- IC50 [51]: > 1200 nM
- IC50 [52]: > 1200 nM
- IC50 [53]: > 1200 nM
- IC50 [54]: > 1200 nM
SMILES: CCCc1cc(N[C@@H]2CC[C@@H](N)C2)n2nccc2n1

- IC50 [56]: 500 nM
SMILES: O=C1N=NC(=O)/C(=C/Nc2ccc(-c3nc4ncccc4[nH]3)cc2)C(=O)N1

- IC50 [58]: 20 nM
- IC50 [59]: 1.1 nM
- IC50 [60]: 2.7 nM
SMILES: CC(C)c1ccc(Nc2nccc(-c3cnn4ncccc34)n2)cc1 [GW805758X]

Source: ChEMBL document CHEMBL5223102, “CDK9 inhibitors in cancer research” (RSC Med Chem, 2022)
